Experimental data as given in paper PMC12023841, “Unlocking the Gates: A Novel Diagnostic Molecule for Quantifying Efflux Levels in Gram‐Positive Bacteria” (Advanced Healthcare Materials, 2025).
Read-outs that look alike come from different tables or passages of the source.

Columns and labels:
[1] = tested on: S. aureus strains; format: cell-based
[2] = tested on: S. epidermidis strains; parameters: method as in earlier work; details: ref [5], cited from earlier work
[3] = tested on: S. epidermidis strains; format: cell-based
[4] = tested on: S. aureus strains; details: cited from earlier work
[5] = molecular target: NorA efflux pump (Staphylococcus aureus, UniProt P0A0J7); format: cell-based, S. aureus; details: 5a4 1 µg mL^−1
[6] = Precipitation of reserpine in the presence of 5a4; format: physicochemical; details: text printed in Figure 7C

Chain of NorA efflux pump (P0A0J7 whole entry): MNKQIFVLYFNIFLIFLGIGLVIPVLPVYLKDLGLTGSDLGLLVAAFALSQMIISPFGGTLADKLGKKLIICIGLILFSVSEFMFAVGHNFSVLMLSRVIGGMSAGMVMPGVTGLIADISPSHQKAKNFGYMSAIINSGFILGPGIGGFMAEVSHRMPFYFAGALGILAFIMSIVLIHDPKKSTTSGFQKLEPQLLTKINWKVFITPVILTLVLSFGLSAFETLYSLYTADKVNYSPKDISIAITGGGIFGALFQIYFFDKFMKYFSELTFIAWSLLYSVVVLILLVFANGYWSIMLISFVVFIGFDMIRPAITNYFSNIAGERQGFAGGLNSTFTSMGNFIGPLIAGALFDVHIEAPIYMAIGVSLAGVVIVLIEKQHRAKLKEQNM

COc1c(N2C[C@@H]3CCCN[C@@H]3C2)c(F)cc2c(=O)c(C(=O)O)cn(C3CC3)c12 [MXF, Moxifloxacin]
Susceptibility profile [1]: R and S
Susceptibility profile ([1]; […]): S
Susceptibility profile ([1]; strain BIOS-H1): S
Susceptibility profile ([1]; strain BIOS-H2): S
Susceptibility profile ([1]; strain BIOS-H3): S
Susceptibility profile ([1]; strain BIOS-H5): S
Susceptibility profile ([1]; strain BIOS-H6): S
Susceptibility profile ([1]; strain BIOS-H12): S
Susceptibility profile ([1]; strain BIOS-H13): S
Susceptibility profile ([1]; strain BIOS-H17): S
Susceptibility profile ([1]; strain BIOS-H20): S
Susceptibility profile ([1]; strain BIOS-H21): S
Susceptibility profile ([1]; strain BIOS-H22): S
Susceptibility profile ([1]; strain BIOS-H25): S
Susceptibility profile ([1]; strain BIOS-H28): S
Susceptibility profile ([1]; strain BIOS-H29): S
Susceptibility profile ([1]; strain BIOS-H30): S
Susceptibility profile ([1]; strain BIOS-H32): S
Susceptibility profile ([1]; strain BIOS-V21): S
Susceptibility profile ([1]; strain BIOS-V31): S
Susceptibility profile ([1]; strain BIOS-V60): S
Susceptibility profile ([1]; strain BIOS-V61): S
Susceptibility profile ([1]; strain BIOS-V62): S
Susceptibility profile ([1]; strain BIOS-V74): S
Susceptibility profile ([1]; strain BIOS-V75): S
Susceptibility profile ([1]; strain BIOS-V85): S
Susceptibility profile ([1]; strain BIOS-V118): S
Susceptibility profile ([1]; strain BIOS-V128): S
Susceptibility profile ([1]; strain BIOS-V147): S
Susceptibility profile ([1]; strain BIOS-V151): S
Susceptibility profile ([1]; strain BIOS-V156): S
Susceptibility profile ([1]; strain BIOS-V157): S
Susceptibility profile ([1]; strain BIOS-V158): S
Susceptibility profile ([1]; strain BIOS-V168): S
Susceptibility profile ([1]; strain BIOS-V172): S
Susceptibility profile ([1]; strain BIOS-V178): S
Susceptibility profile ([1]; strain BIOS-V203): S
Susceptibility profile ([1]; strain BIOS-V245): S
Susceptibility profile ([1]; strain BIOS-V250): S
Susceptibility profile ([1]; strain BIOS-V257): S
Susceptibility profile ([1]; strain BIOS-V279): S
Susceptibility profile ([1]; strain BIOS-V295): S
Susceptibility profile ([2]; strain ATCC12228): S
Susceptibility profile ([2]; strain ATCC12228_EtBr): R
Susceptibility profile [3]: R
Susceptibility profile ([3]; strain BIOS-V24): S
Susceptibility profile ([3]; strain BIOS-V282): S
Susceptibility profile ([4]; strain ATCC25923, ref [4]): S
Susceptibility profile ([4]; strain SA-1199, ref [2]): S
Susceptibility profile ([4]; strain SA-1199B, ref [2]): S
Susceptibility profile ([4]; strain SA-K1712, ref [3]): S
Susceptibility profile ([4]; strain SA-K1748, ref [3]): R
Susceptibility profile ([4]; strain SA-K1758, ref [2]): S
Susceptibility profile ([4]; strain SA-K2068, ref [3]): R

COC(=O)[C@H]1[C@H]2C[C@@H]3c4[nH]c5cc(OC)ccc5c4CCN3C[C@H]2C[C@@H](OC(=O)c2cc(OC)c(OC)c(OC)c2)[C@@H]1OC [reserpine]
change of 5a4 fluorescent intensity with reserpine ([5]; SA‐1199B): drastic increase
reserpine concentration giving significant increase (p < 0.01) in 5a4 fluorescence intensity versus untreated cells ([5]; SA‐1199 and SA‐1199B): ≥ 10 µg/mL
change of 5a4 fluorescent intensity with reserpine ([5]; SA‐K1758 (norA‐deficient)): no discernible change
Precipitation of reserpine (concentration) [6]: 20 to 30 µg/mL
